This experiment has as its target T1, TxGH116 β-glucosidase (Thermoanaerobacterium xylanolyticum, UniProt F6BL85, D593N).
T1 construct: gene Thexy_2211; pET30a/TxGH116Δ1-18 (residues 1-18 removed), E. coli BL21(DE3), IMAC, tag cut with enterokinase, Superdex 200
The experiment is described as follows: X-ray crystal structure, soaked crystal. It is filed as binding. The settings on record: pH 5.5.

Setting [1] is: 200 mM soak, subsites –1 and +1 (Michaelis complex).

T1 sequence (F6BL85 entry or part of it D593N): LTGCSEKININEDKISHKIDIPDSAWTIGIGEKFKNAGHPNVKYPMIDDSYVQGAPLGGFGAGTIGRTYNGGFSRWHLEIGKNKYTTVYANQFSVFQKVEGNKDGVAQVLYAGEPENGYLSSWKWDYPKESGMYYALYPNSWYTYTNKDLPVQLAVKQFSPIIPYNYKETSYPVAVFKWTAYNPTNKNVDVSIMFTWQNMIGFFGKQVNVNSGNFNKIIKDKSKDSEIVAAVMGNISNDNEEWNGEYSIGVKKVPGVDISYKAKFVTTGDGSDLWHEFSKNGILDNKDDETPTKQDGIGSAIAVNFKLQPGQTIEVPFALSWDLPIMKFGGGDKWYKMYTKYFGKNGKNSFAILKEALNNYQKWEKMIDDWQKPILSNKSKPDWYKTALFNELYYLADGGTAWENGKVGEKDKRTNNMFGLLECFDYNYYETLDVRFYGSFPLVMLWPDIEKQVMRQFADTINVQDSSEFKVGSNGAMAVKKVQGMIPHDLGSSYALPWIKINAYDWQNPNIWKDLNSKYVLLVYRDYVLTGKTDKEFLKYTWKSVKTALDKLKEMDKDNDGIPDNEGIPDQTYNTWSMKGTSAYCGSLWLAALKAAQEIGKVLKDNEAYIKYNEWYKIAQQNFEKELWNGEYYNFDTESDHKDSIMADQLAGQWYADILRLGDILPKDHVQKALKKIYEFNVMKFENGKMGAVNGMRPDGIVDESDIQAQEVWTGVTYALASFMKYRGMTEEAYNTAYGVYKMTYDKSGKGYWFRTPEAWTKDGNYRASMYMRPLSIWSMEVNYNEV

`O=[N+]([O-])c1ccc(O[C@@H]2O[C@H](CO)[C@@H](O)[C@H](O)[C@H]2F)c([N+](=O)[O-])c1` [2,4-dinitrophenyl 2-deoxy-2-fluroglucopyranoside]: the “X-ray crystal structure, soaked crystal” value (covalent 2-deoxy-2-fluoroglucosyl-enzyme at nucleophile E441, 10 mM soak) was “The covalent complex of TxGH116 D593N with G2F exhibits an overall structure”.

Take `OC[C@H]1O[C@@H](O[C@H]2[C@H](O)[C@@H](O)C(O)O[C@@H]2CO)[C@H](O)[C@@H](O)[C@@H]1O` (stereo partly drawn) [cellobiose]: under setting [1], the “X-ray crystal structure, soaked crystal” value is listed as “The structure of TxGH116 D593N with cellobiose shows the same interactions”.

As to `OC[C@H]1O[C@@H](O[C@H]2[C@H](O)[C@@H](CO)OC(O)[C@@H]2O)[C@H](O)[C@@H](O)[C@@H]1O` (stereo partly drawn) [laminaribiose], the “X-ray crystal structure, soaked crystal” value under setting [1] was “The TxGH116 D593N variant with laminaribiose (Figure 2B) displays the glycosidic oxygen”.

The values above are taken from publication PMC10167657, “Reaction Mechanism of Glycoside Hydrolase Family 116 Utilizes Perpendicular Protonation” (ACS Catalysis, 2023).
